EP0123157B1, “Medicaments and/or foodstuff concentrates with an anti-bacterial activity” (EGIS GYOGYSZERGYAR, priority 1983, dated 1984)
Values after ≈ are worked out from the molar mass of the structure shown. Where two headings read alike, the source gives them in different places.

Columns and labels:
Experiment in all cases: Minimum inhibitory concentration (MIC) in vitro in broth containing phenol red and glucose
Type in all cases: cell-based
[1] = test system: Gegen Chloramphenicol resistenter Stamm Escherichia coli 494; conditions: single substance; inhibits bacterial growth for 24 hours; chloramphenicol-resistant Escherichia coli 494; read-out: Werte der Mindesthemmkonzentration [MIC-Werte]
Text: (§1) Die Mindesthemmkonzentration (MIC-Werte) der Kombination der 3 obigen Wirkstoffe und der einzelnen obigen Wirkstoffe wurden in vitro gegen die Bakterienstämme Escherichia coli 494, Bordatella bronchiseptica, Staphylococcus aureus und Listeria monocytogenes in einer Phenolrot und Glucose enthaltenden Brühe [Hersteller: Firma Difca] bestimmt.

[2] = test system: Listeria monocytogenes; conditions: read-out: Werte der Mindesthemmkonzentration [MIC-Werte]
Text: as §1

[3] = test system: Bordatella bronchiseptica; conditions: read-out: Werte der Mindesthemmkonzentration [MIC-Werte]
Text: as §1

[4] = test system: Staphylococcus aureus; conditions: read-out: Werte der Mindesthemmkonzentration [MIC-Werte]
Text: as §1

[5] = single substance, inhibits bacterial growth for 24 hours
[6] = single substance, inhibits bacterial growth for 24 hours, Bordatella bronchiseptica

Question: What does the source list for `Cc1ccc2c(Cl)cc(Cl)c(O)c2n1` [Chlorchinaldol, 2-(Methyl)-5,7-di-(chlor)-8-(hydroxy)-chinolin]?
Answer: MIC [1]: 200 µg/mL (≈ 877 µM); MIC [2, 5]: 5 µg/mL (≈ 21.9 µM); MIC [3, 6]: 5 µg/mL (≈ 21.9 µM); MIC [4, 5]: 5 µg/mL (≈ 21.9 µM)

Question: With `CN(C)CCCN1c2ccccc2Sc2ccc(Cl)cc21` [Chlorpromazin, 2-Chlor-10-[3-(dimethylamino)-propyl]-phenothiazin] as the molecule, how does the MIC [1] read?
Answer: 50 µg/mL (≈ 157 µM)

Question: What about the MIC ([2]; 24 h) of the same molecule?
Answer: 25 µg/mL (≈ 78.4 µM)

Question: And the MIC ([3]; 24 h)?
Answer: 200 µg/mL (≈ 627 µM)

Question: And the MIC ([4]; 24 h)?
Answer: 25 µg/mL (≈ 78.4 µM)

Question: Which results are given for `COc1cc(Cc2cnc(N)nc2N)cc(OC)c1OC` [Trimethoprim, 2,4-Diamino-5-[3', 4', 5'-tri-(methoxy)-benzyl]-pyrimidin]?
Answer: MIC [1]: 25 µg/mL (≈ 86.1 µM); MIC [2, 5]: 50 µg/mL (≈ 172 µM); MIC [3, 6]: 50 µg/mL (≈ 172 µM); MIC [4, 5]: 100 µg/mL (≈ 344 µM)
